In the supplement of paper PMC10307832:

How the values were obtained:
Experiment in all cases: relative viability (nuclei count vs DMSO), 5 days (fraction); higher = more cells survive
Entinostat + Vorinostat = compound: Nc1ccccc1NC(=O)c1ccc(CNC(=O)OCc2cccnc2)cc1 [Entinostat] + O=C(CCCCCCC(=O)Nc1ccccc1)NO [Vorinostat] (partner 1 µM)
Method in brief: (§1)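 The day after seeding in 1536-well plates, lung cancer cell lines were treated by pin tool with a single drug, or with a fixed anchor-drug dose together with five library-drug doses (not always all listed) in √10 steps. After 5 days, a combined fix-and-stain solution (final 0.05% Triton X-100, 1% formaldehyde, 1 ug/ml Hoechst) was added. Nuclei counted on 4× images gave relative viability as treated counts over vehicle counts, reported as the median of duplicate plates.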

SGI-1776 + Decitabine = compound: CN1CCC(CNc2ccc3ncc(-c4cccc(OC(F)(F)F)c4)n3n2)CC1 [SGI-1776] + Nc1ncn([C@H]2C[C@H](O)[C@@H](CO)O2)c(=O)n1 [Decitabine] (partner 2 µM)
Method in brief: as §1

Entinostat + Palbociclib = compound: Nc1ccccc1NC(=O)c1ccc(CNC(=O)OCc2cccnc2)cc1 [Entinostat] + CC(=O)c1c(C)c2cnc(Nc3ccc(N4CCNCC4)cn3)nc2n(C2CCCC2)c1=O [Palbociclib] (partner 0.5 µM)
Method in brief: as §1

SGI-1776 + Alpelisib = compound: CN1CCC(CNc2ccc3ncc(-c4cccc(OC(F)(F)F)c4)n3n2)CC1 [SGI-1776] + Cc1nc(NC(=O)N2CCC[C@H]2C(N)=O)sc1-c1ccnc(C(C)(C)C(F)(F)F)c1 [Alpelisib] (partner 2 µM)
Method in brief: as §1

Cell Line | relative viability (Entinostat + Vorinostat; first compound 0.02 µM) | relative viability (Entinostat + Vorinostat; first compound 0.06325 µM) | relative viability (Entinostat + Vorinostat; first compound 0.2 µM) | relative viability (Entinostat + Vorinostat; first compound 0.6325 µM) | relative viability (Entinostat + Vorinostat; first compound 2 µM) | relative viability (SGI-1776 + Decitabine; first compound 0.08 µM) | relative viability (SGI-1776 + Decitabine; first compound 0.8 µM) | relative viability (SGI-1776 + Decitabine; first compound 2.53 µM) | relative viability (SGI-1776 + Decitabine; first compound 8 µM) | relative viability (Entinostat + Palbociclib; first compound 0.02 µM) | relative viability (Entinostat + Palbociclib; first compound 0.06325 µM) | relative viability (Entinostat + Palbociclib; first compound 0.2 µM) | relative viability (Entinostat + Palbociclib; first compound 0.6325 µM) | relative viability (Entinostat + Palbociclib; first compound 2 µM) | relative viability (SGI-1776 + Alpelisib; first compound 0.08 µM) | relative viability (SGI-1776 + Alpelisib; first compound 0.8 µM) | relative viability (SGI-1776 + Alpelisib; first compound 2.53 µM) | relative viability (SGI-1776 + Alpelisib; first compound 8 µM)
NCI-H1651 | 0.599 | 0.645 | 0.449 | 0.496 | 0.314 | 0.622 | 0.726 | 0.65 | 0.499 | 0.549 | 0.535 | 0.617 | 0.533 | 0.45 | 0.97 | 0.957 | 0.834 | 0.752
NCI-H838 | 0.784 | 0.688 | 0.667 | 0.458 | 0.257 | 0.46 | 0.45 | 0.435 | 0.437 | 0.254 | 0.224 | 0.28 | 0.236 | 0.171 | 1.1 | 1.01 | 0.95 | 0.874
NCI-H1915 | 0.488 | 0.499 | 0.481 | 0.356 | 0.152 | 0.271 | 0.258 | 0.268 | 0.221 | 0.51 | 0.494 | 0.43 | 0.383 | 0.208 | 1.09 | 1.12 | 1.11 | 1.03
COR-L23 | 0.368 | 0.503 | 0.423 | 0.208 | 0.238 | 0.445 | 0.456 | 0.466 | 0.342 | 0.31 | 0.249 | 0.253 | 0.139 | 0.0938 | 0.935 | 0.697 | 0.743 | 0.521
HOP-62 | 0.565 | 0.534 | 0.494 | 0.228 | 0.132 | 0.214 | 0.221 | 0.214 | 0.242 | 0.409 | 0.44 | 0.45 | 0.195 | 0.162 | 0.914 | 0.942 | 0.979 | 0.807
NCI-H1975 | 0.692 | 0.651 | 0.509 | 0.347 | 0.211 | 0.43 | 0.391 | 0.431 | 0.377 | 0.488 | 0.378 | 0.346 | 0.181 | 0.132 | 0.674 | 0.598 | 0.501 | 0.322
BEN | 0.632 | 0.571 | 0.553 | 0.459 | 0.384 | 0.733 | 0.711 | 0.635 | 0.554 | 0.543 | 0.466 | 0.457 | 0.454 | 0.4 | 0.957 | 1.01 | 0.896 | 0.699
EMC-BAC-2 | 0.969 | 0.433 | 0.6 | 0.331 | 0.218 | 0.964 | 0.994 | 1.08 | 0.915 | 0.532 | 0.468 | 0.443 | 0.388 | 0.294 | 0.741 | 0.703 | 0.802 | 0.723
NCI-H650 | 0.45 | 0.469 | 0.35 | 0.367 | 0.181 | 0.337 | 0.32 | 0.341 | 0.313 | 0.412 | 0.349 | 0.361 | 0.257 | 0.167 | 1.19 | 1.04 | 1.04 | 0.921
LU99A | 0.521 | 0.499 | 0.503 | 0.388 | 0.326 | 0.859 | 0.872 | 0.94 | 0.876 | 0.419 | 0.416 | 0.376 | 0.388 | 0.302 | 0.614 | 0.525 | 0.552 | 0.406
NCI-H2347 | 0.368 | 0.643 | 0.528 | 0.303 | 0.264 | 0.631 | 0.673 | 0.639 | 0.577 | 0.48 | 0.387 | 0.361 | 0.339 | 0.261 | 1.1 | 1.07 | 1.1 | 1.01
NCI-H2009 | 0.664 | 0.72 | 0.762 | 0.581 | 0.416 | 0.388 | 0.374 | 0.36 | 0.342 | 0.189 | 0.301 | 0.187 | 0.253 | 0.214 | 1.21 | 1.17 | 1.25 | 1.09
HCC-827 | 0.988 | 0.879 | 0.631 | 0.62 | 0.287 | 0.32 | 0.391 | 0.411 | 0.295 | 0.407 | 0.436 | 0.336 | 0.311 | 0.184 | 1.08 | 0.993 | 1.06 | 0.849
NCI-H661 | 0.718 | 0.774 | 0.707 | 0.58 | 0.468 | 0.572 | 0.606 | 0.501 | 0.471 | 0.411 | 0.464 | 0.429 | 0.391 | 0.355 | 0.81 | 1.06 | 0.592 | 0.479
PC-14 | 0.689 | 0.668 | 0.615 | 0.147 | 0.0636 | 0.238 | 0.264 | 0.168 | 0.124 | 0.521 | 0.493 | 0.449 | 0.157 | 0.0723 | 1.12 | 0.956 | 0.976 | 0.757
NCI-H23 | 0.601 | 0.681 | 0.496 | 0.271 | 0.198 | 0.326 | 0.323 | 0.35 | 0.305 | 0.568 | 0.661 | 0.507 | 0.509 | 0.283 | 0.722 | 0.725 | 0.616 | 0.57
SK-LU-1 | 0.775 | 0.801 | 0.747 | 0.579 | 0.582 | 0.671 | 0.665 | 0.658 | 0.645 | 0.361 | 0.395 | 0.361 | 0.311 | 0.316 | 1.02 | 1.01 | 0.816 | 0.406
NCI-H727 | 1.24 | 1.27 | 1.16 | 1.06 | 0.673 | 0.875 | 1.01 | 1.01 | 0.613 | 0.596 | 0.702 | 0.628 | 0.657 | 0.649 | 0.75 | 0.532 | 0.655 | 0.538
